The values below are quoted from earlier work in publication PMC12030314, “Biomarker-Driven Pharmacokinetics and Efficacy of Polymyxin B in Critically Ill Patients with XDR-GN Pneumonia” (Pharmaceuticals, 2025).

The conditions of data set [1]: ref Lamer et al. 103, cited from earlier work.
For data set [2] the following is noted: significant individual variation; cited from earlier work. The source says:
Colistin (colistin methanesulfonate, CMS) and polymyxin B (PMB) are polymyxins that were approved for clinical use in the 1950s worldwide. Colistin is clinically administered as a prodrug, which requires conversion to the active form in vivo. […] The elimination of colistin is primarily dependent on renal function. Patients with renal impairment are prone to drug accumulation and increased nephrotoxicity risk. PMB is ... || Finally, we cannot rule out the possibility of the potential impacts of other combined drugs on PMB PK and the heterogeneity among the patients in our study. To date, little evidence supports the conclusion that the combined use of other drugs affects PMB PK. Studies have shown that urinary recovery from PMB is low (<5%). […] Further studies examining the nonrenal routes of PMB elimination are warranted, ...

Where two headings read alike, the source gives them in different places.

For `CN[C@H](CC(C)C)C(=O)N[C@H]1C(=O)N[C@@H](CC(N)=O)C(=O)N[C@H]2C(=O)N[C@H]3C(=O)N[C@H](C(=O)N[C@H](C(=O)O)c4cc(O)cc(O)c4-c4cc3ccc4O)[C@H](O)c3ccc(c(Cl)c3)Oc3cc2cc(c3O[C@@H]2O[C@H](CO)[C@@H](O)[C@H](O)[C@H]2O[C@H]2C[C@](C)(N)[C@H](O)[C@H](C)O2)Oc2ccc(cc2Cl)[C@H]1O` [vancomycin], the values for the ELF/plasma value in data set [1] (patients with lung inflammation (ELF albumin ≥ 3.4 mg/mL)) and in data set [1] (patients without lung inflammation (ELF albumin <3.4 mg/mL)) were 0.246 [0.192–0.426] and 0.14 [0.023–0.285], respectively.

In the case of colistin methanesulfonate, the “conversion efficiency of the prodrug to the active form in vivo” value in data set [2] was 20–25%.
